Results as given in PubChem BioAssay AID1918948 (Molecular Pharmacology Branch, DTP, NCI, 2023).
Where “and” joins values, the source holds several entries; their conditions need not be identical. Equal values may be shown once.

System: K-562 leukemia growth, % test/control
Experiment: Anticancer human tumor K-562 cell line growth inhibition;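 note: spheroids exposed to compounds for 7 days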;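 for viability, T/C: 100% = DMSO vehicle wells and lower values mean fewer viable cells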
Conditions: spheroids with HUVEC and MSC; for viability, T/C: stronger effect = lower value; active = viability on the fitted dose curve at most 10% of control; inactive = the rest
Excerpt: Multicellular complex tumor spheroid response to LSD1 Inhibitor Iadademstat in combination with a variety of drugs and investigational agents in selected tumor cell lines
The current study was undertaken to assess response to LSD1 inhibitors in combination with standard-of-care drugs and investigational agents in solid tumor complex spheroid models as well as in the K-562 leukemia. Complex spheroids include a stromal component modeled by human endothelial cells (HUVEC) and fibroblasts modeled by human mesenchymal stem cells (MSCs). The concentration ranges selected for each drug and investigational agent were based upon clinically achievable concentrations if the clinical Cmax of the agent was known.
Compounds. The drugs and investigational agents used in this study are listed on Table 1. All of the agents used, including staurosporine (NSC755774) and gemcitabine (NSC613327), were obtained from the Developmental Therapeutics Program, NCI. FDA-approved anticancer drugs are available from the NCI at http://dtp.nci.nih.gov/branches/dscb/oncology_drugset_explanation.html. Drugs and investigational agents were >95% pure by proton nuclear magnetic resonance (NMR) and liquid chromatography/mass spectrometry (LC/MS). Stock solutions were prepared at 400x in DMSO, stored at -70 degrees C, and diluted in fresh medium prior to their use. The final concentration of DMSO in cell culture wells never exceeded 0.25% (v/v). The FDA-approved anticancer drug set is available from the Developmental Therapeutics Program at https://dtp.cancer.gov/organization/dscb/obtaining/available_plates.htm. All drugs and investigational agents were tested over a range starting from a high concentration at or near the clinical Cmax and decreasing in half-log increments. If the clinical Cmax for an agent had not been determined, the highest concentration tested was 10 microM.
Cell Lines. The patient-derived cancer cell (PDC) lines: 292921-168-R-J2-PDC, K24384-001-R-PDC, and 521955-158-R2-J5-PDC pancreatic carcinomas, 556581-035-R-J1 ovarian carcinoma, 324938-238-R-J1-PDC, 855422-203-R-J1-PDC and 883617-216-R-J1-PDC urothelial bladder carcinomas, 743489-274-T-PDC renal cell carcinoma, 138582-R-J1 Merkel cell tumor, K60290-347-R-J1 and K57222-313-R-J1-PDC glioblastomas, 653999-131-R-J2-PDC, LG0703-F948-PDC, and 349418-098-R-PDC non-small cell lung carcinomas, 885512-296-R-J2-PDC, 171881-019-R-J1-PDC breast carcinomas and 186277-243-T-J2-PDC and 233499-124-R-J2-PDC colon carcinomas were obtained from the NCI Patient-Derived Models Repository (PDMR, https://pdmr.cancer.gov). The established cell lines NCI/ADR-RES (RRID:CVCL_14520 and OVCAR-5 (RRID:CVCL_1628) ovarian carcinomas, 786-O (RRID:CVCL_1051) and A498 (RRID:CVCL_A498) renal cell carcinoma, NCI-H211 (ATCC, cat. CRL-5824; RRID:CVCL_1529), NCI-H196 (ATCC, cat. CRL-5823, RRID:CVCL_1509), SW 1271 (ATCC, cat. CRL-2177, RRID:CVCL_1716) and NCI-H1876 (ATCC, cat. CRL-5902, RRID:CVCL_1503) small cell lung carcinomas, MDA-MB-231 (RRID:CVCL_0062) and MDA-MB-468 (RRID:CVCL_0419)breast carcinomas (10-12). Pooled donor human umbilical vein endothelial cells (HUVEC, Lonza, cat. CC-2519) and human mesenchymal stem cells (hMSC, Lonza, cat. PT-2501) were purchased from Lonza (Walkersville, MD).
Cell Culture. All cells were maintained in an incubator at 37 degrees C and 5% CO2 with 95% humidity. The PDC lines were cultured according to standard operating procedures established by the NCI PDMR (https://pdmr.cancer.gov). Briefly all PDCs were thawed and cultured in Matrigel-coated flasks prepared with a working solution of 1X Ham's F-12 nutrient mix, without supplementation (Invitrogen, Waltham, MA, cat. 11765054), 100 U/mL penicillin-streptomycin (Invitrogen, cat. 15140122), and 2.5% Matrigel (Corning Inc., Corning, NY, cat. 354248) for the first three passages. […]

[1] = curve of first compound, second compound 0.1 µM
[2] = curve of first compound, second compound 0.316 µM
[3] = curve of first compound, second compound 1 µM
[4] = curve of first compound, second compound 3.16 µM
[5] = curve of first compound, second compound 10 µM
[6] = second compound 0.1 µM, first compound 0.000316 µM
[7] = second compound 0.1 µM, first compound 0.001 µM
[8] = second compound 0.1 µM, first compound 0.00316 µM
[9] = second compound 0.1 µM, first compound 0.01 µM
[10] = second compound 0.1 µM, first compound 0.0316 µM
[11] = second compound 0.1 µM, first compound 0.1 µM
[12] = second compound 0.316 µM, first compound 0.000316 µM
[13] = second compound 0.316 µM, first compound 0.001 µM
[14] = second compound 0.316 µM, first compound 0.00316 µM
[15] = second compound 0.316 µM, first compound 0.01 µM
[16] = second compound 0.316 µM, first compound 0.0316 µM
[17] = second compound 0.316 µM, first compound 0.1 µM
[18] = second compound 1 µM, first compound 0.000316 µM
[19] = second compound 1 µM, first compound 0.001 µM
[20] = second compound 1 µM, first compound 0.00316 µM
[21] = second compound 1 µM, first compound 0.01 µM
[22] = second compound 1 µM, first compound 0.0316 µM
[23] = second compound 1 µM, first compound 0.1 µM
[24] = second compound 3.16 µM, first compound 0.000316 µM
[25] = second compound 3.16 µM, first compound 0.001 µM
[26] = second compound 3.16 µM, first compound 0.00316 µM
[27] = second compound 3.16 µM, first compound 0.01 µM
[28] = second compound 3.16 µM, first compound 0.0316 µM
[29] = second compound 3.16 µM, first compound 0.1 µM
[30] = second compound 10 µM, first compound 0.000316 µM
[31] = second compound 10 µM, first compound 0.001 µM
[32] = second compound 10 µM, first compound 0.00316 µM
[33] = second compound 10 µM, first compound 0.01 µM
[34] = second compound 10 µM, first compound 0.0316 µM
[35] = second compound 10 µM, first compound 0.1 µM

CC(C)CC(NC(=O)C(Cc1ccccc1)NC(=O)c1cnccn1)B(O)O (stereo not drawn) + NC1CC1c1ccc(-c2cccc(O)c2)cc1
0.585 nM: IC50 [1]
active: viability, T/C [7] 3.66% | viability, T/C [8] 0.7% | viability, T/C [9] 0.61% | viability, T/C [10] 0.46% | viability, T/C [11] 0.42% | viability, T/C [13] 3.12% | viability, T/C [14] 0.63% | viability, T/C [15] 0.53% | viability, T/C [16] 0.48% | viability, T/C [17] 0.47% | viability, T/C [19] 3.33% | viability, T/C [20] 0.63% | viability, T/C [21] 0.53% | viability, T/C [22] 0.39% | viability, T/C [23] 0.56% | viability, T/C [25] 2.37% | viability, T/C [26] 0.61% | viability, T/C [27] 0.46% | viability, T/C [28] 0.43% | viability, T/C [29] 0.44% | viability, T/C [31] 2.01% | viability, T/C [32] 0.5% | viability, T/C [33] 0.46% | viability, T/C [34] 0.43% | viability, T/C [35] 0.39%
inactive: viability, T/C [6] 103% | viability, T/C [12] 105% | viability, T/C [18] 109% | viability, T/C [24] 102% | viability, T/C [30] 87.7%
0.601 nM: IC50 [3]
0.576 nM: IC50 [4]
0.525 nM: IC50 [5]
0.588 nM: IC50 [2]

CC[C@@]1(O)C(=O)OCc2c1cc1n(c2=O)Cc2cc3c(CN(C)C)c(O)ccc3nc2-1 + NC1CCC(NC2CC2c2ccccc2)CC1
1.53 nM: IC50 [5]
1.73 nM: IC50 [2]
active: viability, T/C [10] 8.26% | viability, T/C [11] 4.03% | viability, T/C [16] 7.94% | viability, T/C [17] 3.55% | viability, T/C [22] 6.59% | viability, T/C [23] 3.47% | viability, T/C [28] 7.29% | viability, T/C [29] 4.79% | viability, T/C [34] 5.5% | viability, T/C [35] 2.86%
1.69 nM: IC50 [3]
1.7 nM: IC50 [1]
1.77 nM: IC50 [4]
inactive: viability, T/C [6] 98.9% | viability, T/C [7] 63.2% | viability, T/C [8] 34.7% | viability, T/C [9] 16.3% | viability, T/C [12] 101% | viability, T/C [13] 64.6% | viability, T/C [14] 33.9% | viability, T/C [15] 15.8% | viability, T/C [18] 99.5% | viability, T/C [19] 64.5% | viability, T/C [20] 32.8% | viability, T/C [21] 14.4% | viability, T/C [24] 97.6% | viability, T/C [25] 65.3% | viability, T/C [26] 34.5% | viability, T/C [27] 15.1% | viability, T/C [30] 94.3% | viability, T/C [31] 62.6% | viability, T/C [32] 28.1% | viability, T/C [33] 12.8%

O=C(C=Cn1cnc(-c2cc(C(F)(F)F)cc(C(F)(F)F)c2)n1)NNc1cnccn1
inactive: viability, T/C (compound 0.00316 µM) 102% and 101% | viability, T/C (compound 0.01 µM) 103% | viability, T/C (compound 0.0316 µM) 92.1% and 101% | viability, T/C (compound 0.1 µM) 37.1% and 58.4%
76.3 nM and 123 nM: IC50 (curve of compound)
active: viability, T/C (compound 0.316 µM) 4.12% and 9.78% | viability, T/C (compound 1 µM) 1.22% and 1.15%

Nc1ncn(C2CC(O)C(CO)O2)c(=O)n1 (stereo not drawn) + NC1CC1c1ccc(-c2cccc(O)c2)cc1
166 nM: IC50 [5]
> 1000 nM: IC50 [1] | IC50 [2]
inactive: viability, T/C [8] 106% | viability, T/C [9] 104% | viability, T/C [10] 99.4% | viability, T/C [11] 89.7% | viability, T/C (second compound 0.1 µM, first compound 0.316 µM) 72.8% | viability, T/C (second compound 0.1 µM, first compound 1 µM) 65.1% | viability, T/C [14] 101% | viability, T/C [15] 104% | viability, T/C [16] 97.5% | viability, T/C [17] 86.1% | viability, T/C (second compound 0.316 µM, first compound 0.316 µM) 67.2% | viability, T/C (second compound 0.316 µM, first compound 1 µM) 55.6% | viability, T/C [20] 101% | viability, T/C [21] 102% | viability, T/C [22] 95.9% | viability, T/C [23] 85% | viability, T/C (second compound 1 µM, first compound 0.316 µM) 62.5% | viability, T/C (second compound 1 µM, first compound 1 µM) 50% | viability, T/C [26] 102% | viability, T/C [27] 97.9% | viability, T/C [28] 95.9% | viability, T/C [29] 80.4% | viability, T/C (second compound 3.16 µM, first compound 0.316 µM) 58.4% | viability, T/C (second compound 3.16 µM, first compound 1 µM) 47.6% | viability, T/C [32] 96.9% | viability, T/C [33] 89.1% | viability, T/C [34] 77.4% | viability, T/C [35] 58.7% | viability, T/C (second compound 10 µM, first compound 0.316 µM) 38.8% | viability, T/C (second compound 10 µM, first compound 1 µM) 31.9%
772 nM: IC50 [4]
988 nM: IC50 [3]

CC1(C)CCC(CN2CCN(c3ccc(C(=O)NS(=O)(=O)c4ccc(NCC5CCOCC5)c([N+](=O)[O-])c4)c(Oc4cnc5[nH]ccc5c4)c3)CC2)=C(c2ccc(Cl)cc2)C1
inactive: viability, T/C (compound 0.0316 µM) 102% and 101% | viability, T/C (compound 0.1 µM) 103% and 107% | viability, T/C (compound 0.316 µM) 100% and 108% | viability, T/C (compound 1 µM) 109% and 117% | viability, T/C (compound 3.16 µM) 117% and 75.7%
7520 nM and 4730 nM: IC50 (curve of compound)
